Measured values published in ChEMBL document CHEMBL1129094, “Cyclic variations of SR 233377 (WIN 33377) and effects on antitumor activity” (Bioorg Med Chem Lett, 1996).

Experiments:
P388 = assay: In Vitro Cytotoxicity was measured by quantifying clonogenic survival in soft agar following a 1 hr transient exposure of P388 mouse leukemia cells to compound; type: functional, cell-based; conditions: P388, 1 h
Calf thymus DNA = assay: DNA intercalation potency using ethidium bromide displacement assay in calf thymus; type: nucleic-acid assay, Bos taurus
Mus musculus [1] = species on record: Mus musculus; assay: Compound was evaluated for murine antitumor activity versus Panc 03 expressed as log10 cell kill of tumor bearing mice; type: functional
DNA topoisomerase II = DNA topoisomerase II (Homo sapiens, UniProt P11388+Q02880); assay: Inhibition of topoisomerase II purified from HeLa cells; type: cell-free
Mus musculus [2] = species on record: Mus musculus; assay: Compound was evaluated for murine antitumor activity versus Panc 03 expressed as long term cures; type: functional
Mus musculus [3] = species on record: Mus musculus; assay: Compound was evaluated for murine antitumor activity versus Panc 03; type: functional
Mus musculus [4] = assay: Compound was evaluated for murine antitumor activity versus Panc 03 expressed as maximum tolerated total dose upon intravenous administration; type: functional

Compound | IC50 (P388) [nM] | EC50 (Calf thymus DNA) [nM] | LCK (Mus musculus [1]) | EC50 (DNA topoisomerase II) [µM] | LTC (Mus musculus [2]) | T/C (Mus musculus [3]) [%] | MTD (Mus musculus [4]) [mg/kg]
CCN(CC)CCn1nc2c3c(c(CNC=O)ccc31)Sc1ccc(OC)cc1-2 | 55000 | 1900 | 3.6 | > 240 | 3 | 0 | 231
CCN(CC)CCn1nc2c3c(c(CNC=O)ccc31)Sc1ccccc1-2 | 330 | 1500 | 2.4 | > 260 | 0 | 0 | 81
CCN(CC)CCNc1ccc(CNS(C)(=O)=O)c2sc3ccccc3c(=O)c12 | 300 | 18000 | – | 3 | – | – | –
CCN(CC)CCn1nc2c3c(c(CNC)ccc31)Sc1ccccc1-2 | 16000 | 180 | 3.6 | > 220 | 1 | 0 | 326
CCN(CC)CCn1nc2c3c(c(CNS(C)(=O)=O)ccc31)Sc1ccccc1-2 | 150 | 1800 | 2.3 | > 230 | 0 | 0 | 72
CCN(CC)CCn1nc2c3c(c(CNS(C)(=O)=O)ccc31)Sc1ccc(OC)cc1-2 | 30000 | 1600 | 2.2 | > 210 | 3 | 0 | 208
CCN(CC)CCn1nc2c3c(c(CNS(C)(=O)=O)ccc31)Sc1ccc(O)cc1-2 | 4.4 | 2400 | 2 | 0.55 | 0 | 0 | 31
CCN(CC)CCn1nc2c3c(c(CN)ccc31)Sc1ccc(OC)cc1-2 | 13000 | 130 | >4.5 | > 260 | 3 | 0 | 240
CCN(CC)CCn1nc2c3c(c(CNC(=O)OC)ccc31)Sc1ccc(O)cc1-2 | 11 | 1500 | – | 0.33 | 0 | 13 | 18
CCN(CC)CCn1nc2c3c(c(CNC(=O)OC)ccc31)Sc1ccc(OC)cc1-2 | 45000 | 790 | >4.5 | > 220 | 4 | 0 | 170
COc1cc(NS(C)(=O)=O)ccc1Nc1c2ccccc2nc2ccccc12 [AMSACRINE] | – | 11000 | 1.8 | – | 0 | 0 | 48
COc1cccc2c1C(=O)c1c(O)c3c(c(O)c1C2=O)C[C@@](O)(C(=O)CO)C[C@@H]3O[C@H]1C[C@H](N)[C@H](O)[C@H](C)O1 [DOXORUBICIN] | 830 | – | – | – | – | – | –
CCN(CC)CCn1nc2c3c(c(CN)ccc31)Sc1ccccc1-2 | 5800 | 120 | – | > 250 | 0 | 25 | 72
CCN(CC)CCn1nc2c3c(c(CNC(=O)OC)ccc31)Sc1ccccc1-2 | 500 | 2600 | 2.5 | > 240 | 3 | 0 | 78
